How the values were obtained:
Assay type in all cases: cell-based
[1] = tested on: HIV-1ADA; assay: Viral infection assay, ADA Env (wild type, ΔV1V2, CD4-independent N197S); conditions: for Fold change: mutant/wild-type IC50
Protocol: To study CD4-independent infection, the full-length HIV-1ADA N197S Env mutant was used. This Env is an ADA-HXBc2 chimera with an N197S change. The control “wild-type” ADA Env used in these experiments is also an ADA-HXBc2 chimera.
(§1) Production of recombinant HIV-1 expressing luciferase. […] After 48 hours, the supernatant was collected, buffered with 50 mM Hepes pH 7.4 (final concentration) and centrifuged for 5 minutes at 750×g and 4° C. The virus-containing supernatant was used directly or frozen at −80° C.
(§2) Viral infection assay. Each test compound was serially diluted in DMSO in a 96-well B&W isoplate (PerkinElmer, Boston, Mass.) using an HP D300 Digital Dispenser, to a final volume of 450 nl. DMSO was used as a control. Viruses pseudotyped with a specific Env were added to each well and incubated briefly at room temperature. Cf2Th-CD4/CCR5 cells were detached with StemPro Accutase Cell Dissociation Reagent (Invitrogen, cat #A11105-01), washed once, and 5000 cells were added to each well. […] Following incubation, the medium was aspirated and cells were lysed with 30 μl of Passive Lysis Buffer (Promega, cat #E1941). The activity of the firefly luciferase, which was used as a reporter protein in the system, was measured with a Centro LB 960 luminometer (Berthold Technologies, Oak Ridge, Tenn.). One hundred microliters of assay buffer (15 mM MgSO4, 15 mM KH2PO4/K2HPO4 pH 7.8, 1 mM ATP and 1 mM DTT) was injected to each well, followed by a 50 μl injection of 1 mM Dluciferin potassium salt (BD Pharmingen, San Jose, Calif.); luminescence was measured for 2 sec. Infection of PBMC was done as above, but 20,000-40,000 cells/well and viruses concentrated by ultracentrifugation were used. After four hours of incubation with viruses, the cells were centrifuged at 200×g for 6 minutes at 4° C., resuspended in 100 μl RPMI-PBMC medium and incubated at 37° C. for an additional 36-40 hours (total 40-44 hours). Supernatant was removed after centrifugation at 400×g for 5 minutes and cells were processed to detect luciferase activity, as described above.

[2] = tested on: SIVmac239; assay: Viral infection assay, SIV Env; conditions: virus with SIVmac239 Env
Protocol: as §1
as §2, with “Infection of PBMC was done as above, but 20,000-40,000 cells/well and viruses concentrated by ultracentrifugation were used. After four hours of incubation with viruses, the cells were centrifuged at 200×g for 6 minutes at 4° C., resuspended in 100 μl RPMI-PBMC medium and incubated at 37° C. for an additional 36-40 hours (total 40-44 hours). Supernatant was removed after centrifugation at 400×g for 5 minutes and cells were processed to detect luciferase activity, as described above.” left out

[3] = tested on: HIV-2OC1; assay: Viral infection assay, HIV-2 Env; conditions: virus with HIV-2OC1 Env
Protocol: as §1
as §2, with “Infection of PBMC was done as above, but 20,000-40,000 cells/well and viruses concentrated by ultracentrifugation were used. After four hours of incubation with viruses, the cells were centrifuged at 200×g for 6 minutes at 4° C., resuspended in 100 μl RPMI-PBMC medium and incubated at 37° C. for an additional 36-40 hours (total 40-44 hours). Supernatant was removed after centrifugation at 400×g for 5 minutes and cells were processed to detect luciferase activity, as described above.” left out

[4] = tested on: CEM #21 cells; assay: Viability assay, CEM#21 target cells
Protocol: H-JRFL#1336 (effector) and H-Fluc4 (control) cells were grown in DMEM containing 10% FBS, 100 μg/ml streptomycin, 100 units/ml penicillin, 200 μg/ml G418, 1 μg/ml puromycin and 2 μg/ml doxycycline. H-JRFL#13 cells carry an HIV-1JR-FL env gene that is induced by growing the cells in the absence of doxycycline (Tet-Off expression system). H-Fluc4 cells, which carry a firefly luciferase gene that is induced in the absence of doxycycline, were used as specificity controls. Both cell lines were derived from HeLa cells and constitutively express the tetracycline-regulated transactivator (Tet-Off expression system). CEM#21 target cells were grown in RPMI containing 10% FBS, 100 μg/ml streptomycin, 100 units/ml penicillin and 1 μg/ml puromycin. […]
Viability Assay. […] The plate was equilibrated to room temperature, 15 μl of CellTiterGlo (Promega) was added to each well and luminescence was measured as described above. […] 30 μl (Cf2Th cells) or 100 μl (PBMC) of CellTiterGlo was added and luminescence was measured as described above.

Question: For `O=C(N/N=C/c1ccc(O)cc1)Nc1cccc2nsnc12` [Compound 18A], which IC50 ([1]; ADA Env wild type) is on record?
Answer: Its IC50 is 12.8 ± 1.5 µM.

Question: And the Fold change ([1]; ADA Env wild type)?
Answer: The Fold change was 1.

Question: What about the IC50 ([1]; ADA Env ΔV1V2) of the same compound?
Answer: Its IC50 is 10.8 ± 2 µM.

Question: And the Fold change ([1]; ADA Env ΔV1V2)?
Answer: The Fold change was 0.8.

Question: And the “infection of CD4-negative, CCR5-expressing cells” value ([1]; CD4-independent HIV-ADA N197S)?
Answer: The value was “protected CD4-negative, CCR5-expressing cells from infection”.

Question: And the “entry into CD4/CCR5-expressing cells” value ([1]; wild-type HIV-1ADA and HIV-1ADA N197S)?
Answer: Its value is “blocked by 18A with a similar profile of inhibition”.

Question: And the inhibition of infection [2]?
Answer: Its inhibition of infection is “significantly less potent”.

Question: What about the inhibition of infection [3] of the same compound?
Answer: The inhibition of infection was “significantly less potent”.

Question: And the CC50 [4]?
Answer: Its CC50 is 26.6 ± 2.1 µM.

— patent US20170298056A1, “SMALL MOLECULE INHIBITORS OF HIV-1 ENTRY AND METHODS OF USE THEREOF” (Dana-Farber Cancer Institute, Inc., priority 2014, published 2017)
